# Tested on: HCV genotype-1a variant with glutamine 30 changed to glutamate in the NS5A protein
# Type: cell-based
# Conditions: test compound titrated with BMS-790052 fixed at 200 nM; genotype 1a Q30E replicon
# Summary of the method: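 Synergy was assessed by combining several fixed amounts of an NS5A-targeting compound with a titration of the second compound of interest.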
row,SMILES,Fold-Synergistic 1a (Q30E)
1,COC(=O)NC(C(=O)NC(c1nc(-c2ccc(-c3ccc(-c4cn(C)c(C(NC(=O)C(NC(=O)OC)C(C)C)C(C)C)n4)cc3)cc2)cn1C)C(C)C)C(C)C.O=C(O)C(F)(F)F.O=C(O)C(F)(F)F (centres unmarked) [Compound Y-17],>10 fold
2,CC1(C)CCCC(C)(C(=O)NC(c2nc(-c3ccc(-c4ccc(-c5c[nH]c(C(NC(=O)C6(C)CCCC(C)(C)O6)C(C)(C)C)n5)cc4)cc3)c[nH]2)C(C)(C)C)O1 (mixture of isomers) [Compound W-163],>100 fold
3,CCCC(=O)N[C@H](c1ncc(-c2ccc(-c3ccc(-c4cnc([C@@H](NC(=O)CCC)C(C)C)[nH]4)cc3)cc2)[nH]1)C(C)C [Compound S-33],>100 fold
4,Cc1cc(-c2ccc(-c3c[nH]c([C@@H](NC(=O)C4CC(F)(F)C4)C(C)C)n3)cc2)ccc1-c1c[nH]c([C@@H](NC(=O)C2CC(F)(F)C2)C(C)C)n1.O=C(O)C(F)(F)F [Compound N-78],>100 fold
5,CC(C)[C@H](NC(=O)C(=O)C1(CO)CCC(F)(F)CC1)c1ncc(-c2ccc(-c3ccc(-c4cnc([C@@H](NC(=O)C(=O)C5(CO)CCC(F)(F)CC5)C(C)C)[nH]4)cc3)cc2)[nH]1 [Compound P-128],>100 fold
6,CC(C)(C)[C@H](NC(=O)c1ccncc1F)c1nc(-c2ccc(-c3ccc(-c4c[nH]c([C@@H](NC(=O)c5ccncc5F)C(C)(C)C)n4)cc3)cc2)c[nH]1 [Compound P-24],>100 fold
7,CC(C)(C)[C@H](NC(=O)C1CCC(F)(F)CC1)c1nc2ccc(C#CC#Cc3ccc4nc([C@@H](NC(=O)C5CCC(F)(F)CC5)C(C)(C)C)[nH]c4c3)cc2[nH]1 [Compound B46],>100 fold
8,CC(C)[C@H](N[S@@+]([O-])C(C)(C)C)c1ncc(-c2ccc(-c3ccc(-c4cnc([C@@H](N[S@+]([O-])C(C)(C)C)C(C)C)[nH]4)cc3)cc2)[nH]1 [Compound Y-60],>100 fold
9,Cc1ccc(S(=O)(=O)NC(c2ncc(-c3ccc(-c4ccc(-c5cnc([C@@H](NS(=O)(=O)c6ccc(C)cc6)C(C)C)[nH]5)cc4)cc3)[nH]2)C(C)C)cc1 (some centres unmarked) [Compound Y-58],>100 fold
10,CC(CO)(CO)C(=O)N[C@H](c1nc(-c2ccc(-c3ccc(-c4c[nH]c([C@@H](NC(=O)C(C)(CO)CO)C(C)(C)C)n4)cc3)cc2)c[nH]1)C(C)(C)C [Compound W-125],>100 fold
11,CC(C)(C)C(=O)N[C@H](c1nc2ccc(C#Cc3ccc4nc([C@@H](NC(=O)C(C)(C)C)C(C)(C)C)[nH]c4c3)cc2[nH]1)C(C)(C)C.O=C(O)C(F)(F)F [Compound B39],>100 fold
12,"COC(C)(CO)C(=O)N[C@H](c1nc(-c2ccc(-c3ccc(-c4c[nH]c([C@@H](NC(=O)C(C)(CO)OC)C(C)(C)C)n4)cc3)cc2)c[nH]1)C(C)(C)C (single isomer, unassigned) [Compound W-237]",>100 fold
13,CC(C)(C)OC(=O)N1CCOCC1C(=O)NC(c1nc(-c2ccc(-c3ccc(-c4c[nH]c(C(NC(=O)C5COCCN5C(=O)OC(C)(C)C)C(C)(C)C)n4)cc3)cc2)c[nH]1)C(C)(C)C [Compound L-61],>100 fold
14,CC(C)[C@H](NC(=O)[C@H](C)c1ccccc1)c1ncc(-c2ccc(-c3ccc(-c4cnc([C@@H](NC(=O)[C@H](C)c5ccccc5)C(C)C)[nH]4)cc3)cc2)[nH]1 [Compound P-64],>100 fold
15,COCC(C)(C)C(=O)N[C@H](c1ncc(-c2ccc(-c3ccc(-c4cnc([C@@H](NC(=O)C(C)(C)COC)C(C)C)[nH]4)cc3)cc2)[nH]1)C(C)C [Compound P-70],>100 fold
16,CC(C)(C)[C@H](NC(=O)C(=O)N1CC(F)(F)C1)c1nc(-c2ccc(-c3ccc(-c4c[nH]c([C@@H](NC(=O)C(=O)N5CC(F)(F)C5)C(C)(C)C)n4)cc3)cc2)c[nH]1 [Compound W-28],>100 fold
17,CO[C@H](C(=O)N[C@H](c1ncc(-c2ccc(-c3ccc(-c4cnc([C@@H](NC(=O)[C@@H](OC)c5ccccc5)C(C)C)[nH]4)cc3)cc2)[nH]1)C(C)C)c1ccccc1 [Compound P-85],>100 fold
